In brackets after ≈: the same amount, converted by molar mass. Entries after “also recorded” stand apart in the source; their conditions may differ.
How the values were obtained:
[1] = system: Paracoccidioides brasiliensis S1 isolate 18 (Pb18); assay: MIC by microdilution (CLSI M27-A3 modified, alamar blue), Pb18; assay type: cell-based; conditions: read-out: Pb18 MIC
Protocol: (§1) Paracoccidioides brasiliensis S1 isolate 18 (Pb18-chronic PCM/São Paulo, Brazil), P. brasiliensis S2 (02-chronic PCM/Venezuela), and P. lutzii Pb01-strain ATCC MYA-826 (acute PCM/Goiânia, Brazil) were obtained from the mycology collection of the Mycology Laboratory, School of Pharmaceutical Sciences and were maintained in Fava-Netto agar medium at 37°C.
(§2) The MIC assay was performed according to the microdilution method described by Clinical and Laboratory Standards Institute ([CLSI, 2008]) document M27-A3 with modifications ([de Paula e Silva et al., 2013]). Alkyl derivatives of protocatechuic acid (hexyl, heptyl, octyl, nonyl, decyl, and dodecyl protocatechuates) were diluted according to CLSI M27-S3. The yeast suspension was adjusted to a final concentration of 1.5 × 10^3 CFU/mL in RPMI-1640 medium (Sigma–Aldrich, St. Louis, MO, United States) in 96-well plates and serial dilutions (from 250 to 0.24 μg/mL) of the compounds were then added; AMB and ITC were used as controls. The plates were incubated on a shaker at 37°C/150 rpm for a specific duration individually determined for each microorganism. The MIC was determined using alamar blue (Sigma–Aldrich, St. Louis, MO, United States) at 530 and 570 nm; a change from the original blue color of the reagent to pink […]. Following 72 or 96 h of incubation. The Minimum Fungicide Concentration (MFC) was determined by transferring an aliquot from the wells to Brain Heart Infusion (BHI) medium supplemented with 2% glucose (Difco, BD Biosciences) plates, which were then incubated at 37°C for 5–7 days. The MFC was defined as the concentration that inhibited growth ([Soares et al., 2014]).

[2] = system: P. lutzii Pb01-strain ATCC MYA-826; assay: MIC by microdilution (CLSI M27-A3 modified, alamar blue), Pb01; assay type: cell-based; conditions: Paracoccidioides lutzii, read-out: Pb01 MIC
Protocol: as §1, §2

[3] = system: P. brasiliensis S2 (02) (Pb02); assay: MIC by microdilution (CLSI M27-A3 modified, alamar blue), Pb02; assay type: cell-based; conditions: Paracoccidioides brasiliensis, read-out: Pb02 MIC, P. brasiliensis Pb02
Protocol: as §1, §2

[4] = Cytotoxicity assay, 0.4% sulforhodamine B, MRC5; assay type: cell-based; conditions: human, MRC5 cells; for IC50 at 24 h: 24 h treatment, SRB; for viability at 24 h: at MIC, read-out: cell viability at the MIC values
Protocol: The cytotoxicity of the protocatechuates was assessed in the MRC5 cell line (MRC5) obtained from the American Type Culture Collection (ATCC; Manassas, VA, United States) and HepG2 cell line obtained from the Biotechnology Laboratory Biotech (UNICAMP, Brazil). The plates were first incubated with 1 × 10^5 cells per well at 36.5°C under 5% CO2 for 24 h to form a cell monolayer ([Husøy et al., 1993]). Compounds were tested at different concentrations ranging from 0.12 to 62.5 μg/mL using serial dilutions in a total volume of 100 μL per well. After the 24 h treatment the cytotoxicity was assessed by the 0.4% sulforhodamine B (SRB) ([Vichai and Kirtikara, 2006]). The assay is sensitive and measures the cellular protein content of adherent or suspension cultures in 96-well plates. Cells were fixed with trichloroacetic acid (TCA) and then stained for 30 min with SRB dissolved in acetic acid. In mildly acidic conditions, SRB binds on basic amino acid residues on TCA-fixed cells. The unbound dye is then removed after washing and the dye bound to the protein is solubilized in basic medium (Tris-base). The absorbance was measured at 570 nm. The result of the percentage of viable cells was performed using the following formula: according to [Rajpoot et al. (2012)] with minor modification.
Viable cells % = (test mean - hite mean/mean negative control - mean white) × 100

[5] = system: P. brasiliensis (Pb18) adhesion to fibronectin matrix; assay: Inhibition of P. brasiliensis 18 adhesion to artificial ECM: fibronectin; assay type: cell-based, Paracoccidioides brasiliensis; conditions: Pb18, 3 h adhesion, 24 h treatment
Protocol: (§3) Initially, 24-well plates were coated with ECM of fibronectin and laminin, respectively (Sigma–Aldrich, St. Louis, MO, United States) at a concentration of 50 μg/mL for 18 h at 4°C followed by incubation for 1 h at 37°C. The plates were then washed three times with PBS and fungal suspension was added at a concentration of 1.5 × 10^3 CFU/mL, which had been inoculated into the 24-well plate previously sensitized with ECM and incubated at 37°C for 1, 3, or 5 h. Subsequently, the supernatant was removed, the plate was washed with PBS, and then 300 μL of trypsin was added (Sigma). The supernatant was obtained and then centrifuged at 10,000 rpm for 5 min at (4°C). The new supernatant was discarded and 500 μL of FACS buffer was added for subsequent cell counting by flow cytometry (BD FACS Canto and BD FACS Diva software analysis). Following the adhesion period, treatment with the selected compound (dodecyl and NLS+dodecyl) was performed for 24 h at 37°C. RPMI-1640 with L-glutamine and 2% glucose was used to maintain adequate nutritional status. Subsequently, the supernatant was removed and the plate was washed with PBS. Then, 300 μL of trypsin was added and centrifuged. The supernatant was discarded and 500 μL of FACS buffer was added to each tube for subsequent cell counting by flow cytometry (BD FACS Canto and BD FACS Diva software analysis).

[6] = system: P. brasiliensis (Pb18) adhesion to laminin matrix; assay: Inhibition of P. brasiliensis 18 adhesion to artificial ECM: laminin; assay type: cell-based, Paracoccidioides brasiliensis; conditions: Pb18, 3 h adhesion, 24 h treatment
Protocol: as §3

[7] = system: P. brasiliensis (Pb 18) adhesion to cell line MRC5; assay: Inhibition of P. brasiliensis 18 adhesion to cells (MRC5), flow cytometry; assay type: cell-based, Paracoccidioides brasiliensis; conditions: Pb18 on MRC5, 3 h adhesion, 24 h treatment
Protocol: Cells (MRC5) were cultured at 36.5°C in 24-well plates and adjusted to 1 × 10^5 cells per well. A P. brasiliensis suspension (1.5 × 10^3 CFU/mL) was labeled with 10 μM of 5(6)-carboxyfluorescein diacetate N-succinimidyl ester (CFSE; Sigma–Aldrich) and then added to the cells. The plate was incubated for 3 h at 36.5°C under 5% CO2 to enable the adhesion process. Subsequent to treatment, dodecyl and NLS+dodecyl were applied and the plate was incubated for 24 h under the same conditions. The supernatant was removed and the plate was washed with PBS. Then, 300 μL of trypsin (Sigma–Aldrich,) was added and centrifuged. The supernatant was discarded and 500 μL of FACS buffer was added to each tube, for subsequent cell counting by flow cytometry (BD FACS Canto) and BD FACS Diva software analysis ([Mendes-Giannini et al., 1994], [2004]; [Hanna et al., 2000]).

[8] = system: Caenorhabditis elegans wild-type strain N2; assay: Toxicity assay in C. elegans model; assay type: in vivo; conditions: 24 h; for toxic effect on C. elegans survival: 0.03 to 125 μg/mL
Protocol: Caenorhabditis elegans wild-type strain N2 was routinely cultured at 22°C on nematode growth medium (NGM) plates seeded with E. coli strain OP50. For the toxicity assay, eggs were harvested to obtain synchronous cultures. After 3 days, worms in the L4 stage were washed with M9 buffer. Then, approximately 20 worms were transferred to each well of a 96-wells plate containing 100 μL of 60% M9 buffer, 40% BHI, 10 μg/mL cholesterol (in ethanol), 200 μg/mL ampicillin, and 90 μg/mL kanamycin. Next, 100 μL of dodecyl protocatechuate, NLS, or NLS+dodecyl were added to the medium with final compound concentrations in each well ranging from 0.03 to 125 μg/mL. The plate was incubated at 22°C for 24 h. Worm survival was evaluated based on mobility and form (worms with a stick shape were considered dead and worms with a sinusoidal shape were considered alive). Images were acquired using an IN Cell Analyzer 2000 (GE Healthcare), microscope (10×).

Row | SMILES | MIC [1] [µg/mL] | MIC [2] [µg/mL] | MIC [3] [µg/mL] | IC50 at 24 h [4] [µg/mL] | viability at 24 h [4] [%] | inhibition of adhesion to the fibronectin matrix [5] [%] | inhibition of adhesion to the laminin matrix [6] [%] | inhibition of adhesion to cells [7] [%] | Survival percentage of C. elegans worms ([8]; 0.03 μg/mL) [%] | Survival percentage of C. elegans worms ([8]; 0.48 μg/mL) [%] | Survival percentage of C. elegans worms ([8]; 7.80 μg/mL) [%] | Survival percentage of C. elegans worms ([8]; 15.60 μg/mL) [%] | Survival percentage of C. elegans worms ([8]; 62.50 μg/mL) [%] | Survival percentage of C. elegans worms ([8]; 125.00 μg/mL) [%] | toxic effect on C. elegans survival [8] | toxic effect on C. elegans survival ([8]; listed as free dodecyl protocatechuate)
1 | CCC(C)n1ncn(-c2ccc(N3CCN(c4ccc(OCC5COC(Cn6cncn6)(c6ccc(Cl)cc6Cl)O5)cc4)CC3)cc2)c1=O (stereo not drawn) [ITC, itraconazole, reference compound] | 0.02 (≈ 0.0283 µM) | 0.12 (≈ 0.17 µM) | 0.01 (≈ 0.0142 µM) | 0.1 (≈ 0.142 µM) | – | – | – | – | – | – | – | – | – | – | – | –
2 | CCCCCCCCCCCCOC(=O)c1ccc(O)c(O)c1 [dodecyl, Dodecyl protocatechuate] | 0.48 (≈ 1.49 µM) | 0.48 (≈ 1.49 µM) | 0.24 (≈ 0.744 µM) | 17.9 (≈ 55.5 µM) | 98 | 64 | 75 | 65 | 100 | 100 | 100 | 100 | 100 | 100 | neither dodecyl nor NLS+dodecyl exhibited any toxic effects; also recorded: did not affect worm survival at any concentration | neither compound exhibited a toxic effect on survival
3 | C[C@@H]1[C@H](O)[C@@H](C)/C=C/C=C/C=C/C=C/C=C/C=C/C=C/[C@H](O[C@@H]2O[C@H](C)[C@@H](O)[C@H](N)[C@@H]2O)C[C@@H]2O[C@](O)(C[C@@H](O)C[C@@H](O)[C@H](O)CC[C@@H](O)C[C@@H](O)CC(=O)O[C@H]1C)C[C@H](O)[C@H]2C(=O)O [AMB, Amphotericin B, reference compound] | 0.13 (≈ 0.141 µM) | 0.06 (≈ 0.0649 µM) | – | 0.22 (≈ 0.238 µM) | – | – | – | – | – | – | – | – | – | – | – | –
4 | CCCCCCCCCCOC(=O)c1ccc(O)c(O)c1 [decyl, decyl protocatechuate] | 0.97 (≈ 3.29 µM) | 1.9 (≈ 6.45 µM) | 0.48 (≈ 1.63 µM) | 16 (≈ 54.3 µM) | 98 | – | – | – | – | – | – | – | – | – | – | –
5 | CCCCCCOC(=O)c1ccc(O)c(O)c1 [hexyl, hexyl protocatechuate] | 3.9 (≈ 16.4 µM) | 7.8 (≈ 32.7 µM) | 1.9 (≈ 7.97 µM) | 29.5 (≈ 124 µM) | 99 | – | – | – | – | – | – | – | – | – | – | –
6 | CCCCCCCCOC(=O)c1ccc(O)c(O)c1 [octyl, octyl protocatechuate] | 0.97 (≈ 3.64 µM) | 0.97 (≈ 3.64 µM) | 1.9 (≈ 7.13 µM) | 33.7 (≈ 127 µM) | 98 | – | – | – | – | – | – | – | – | – | – | –
7 | CCCCCCCOC(=O)c1ccc(O)c(O)c1 [heptyl, heptyl protocatechuate] | 7.8 (≈ 30.9 µM) | 3.9 (≈ 15.5 µM) | 0.24 (≈ 0.951 µM) | 17.6 (≈ 69.8 µM) | 65 | – | – | – | – | – | – | – | – | – | – | –
8 | CCCCCCCCCOC(=O)c1ccc(O)c(O)c1 [nonyl, nonyl protocatechuate] | 1.9 (≈ 6.78 µM) | 0.97 (≈ 3.46 µM) | 0.48 (≈ 1.71 µM) | 17.7 (≈ 63.1 µM) | 96 | – | – | – | – | – | – | – | – | – | – | –
